{"source": "patent US11572590B2", "about": "“Methods for evaluating tumor cell spheroids using 3D microfluidic cell culture device” (Dana-Farber Cancer Institute, Inc., priority 2017, dated 2023)", "test_in_all_cases": "SelectScreen Kinase Profiling, single point inhibition and IC50 for off-target kinases", "type_in_all_cases": "biochemical", "key": {"[1]": {"biological_target": "off-target kinases (Homo sapiens, UniProt P37023)", "sequence (P37023 22-503)": "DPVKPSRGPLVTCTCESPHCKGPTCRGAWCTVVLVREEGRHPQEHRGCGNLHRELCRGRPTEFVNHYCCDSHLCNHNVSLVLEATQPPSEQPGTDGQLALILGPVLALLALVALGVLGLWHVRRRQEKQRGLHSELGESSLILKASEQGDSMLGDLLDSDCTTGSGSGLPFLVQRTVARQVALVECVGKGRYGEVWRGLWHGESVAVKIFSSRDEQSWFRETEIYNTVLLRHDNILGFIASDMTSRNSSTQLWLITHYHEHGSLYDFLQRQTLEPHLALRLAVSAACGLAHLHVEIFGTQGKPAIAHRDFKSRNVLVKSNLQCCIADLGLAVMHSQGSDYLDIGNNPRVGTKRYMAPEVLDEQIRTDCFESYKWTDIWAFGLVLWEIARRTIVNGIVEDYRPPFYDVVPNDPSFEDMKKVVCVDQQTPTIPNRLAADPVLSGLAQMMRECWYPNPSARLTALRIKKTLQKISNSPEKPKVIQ", "conditions": "ACVRL1 (ALK1), LanthaScreen Binding", "experimental": "(§1) Biochemical single point inhibition and IC50 concentrations for TBK1, IKKε (IKBKE), and off-target kinases were determined at ThermoFisher Scientific using SelectScreen Kinase Profiling Services (Madison, Wis., USA) (Tables S4A and S4B-1-7). To determine cellular potency, the human colorectal cancer carcinoma cell line HCT116 (ATCC, Manassas, Va.) was maintained in T175 flasks in complete RPMI medium; RPMI 1640 supplemented with 10% FBS, 1× Penicillin-Streptomycin solution and 1×MEM (non-essential amino acids). HCT116 cells were grown to 90-95% confluency in T175 flasks containing complete RPMI medium and transfected in bulk using Lipofectamine 2000 (Invitrogen, Carlsbad, Calif.) with 70 μg of ISG54-luciferase reporter plasmid (Elim Biopharmaceuticals Inc., Hayward, Calif.). The reporter plasmid contains a luciferase gene expression cassette under the transcriptional regulation of the promoter of the human interferon stimulated gene 54 (ISG54). Transfection of the cells was allowed to take place for 6 hours, after which the cells were harvested by treatment with 0.25% trypsin EDTA (Corning Inc., Corning, N.Y.). Trypsinized cells were added to 384-well poly-d-lysine treated black clear bottom tissue culture assay plates (Greiner Bio-One GmbH, Kremsmünster, Austria) at a density of 20,000 cells/well in 80 μL of complete RPMI medium and incubated overnight. After 16-18 hours post-transfection, the assay plates were washed with PBS (Corning Inc., Corning, N.Y.), followed by addition of 80 μL/well of serum-free RPMI 1640 medium containing 1× Penicillin-Streptomycin solution, 1×MEM and 350 nL of DMSO or titrations of Compound 1. Compound 1 titrations were generated by 1.5-fold dilution steps in two overlapping serial dilution series to generate a 40-point compound dose range. After incubation at 37° C. for 1 hour, the cells were stimulated with Poly(I:C) (InvivoGen, San Diego, Calif.) at a final concentration of 15 μg/mL in Optimem media (Life Technologies, Rockville, Md.). The assay plates were incubated for 5 hours at 37° C., followed by addition of One-Glo luciferase firefly reagent (Promega, Madison, Wis.) at 1:1 volume/well and luminescence was measured in an EnVision Multilabel Plate Reader (PerkinElmer, Santa Clara, Calif.). The EC50 values were calculated from the fit of the dose-response curves to a four-parameter equation. All EC50 values represent geometric mean values of a minimum of four determinations."}, "[2]": {"biological_target": "off-target kinases (Homo sapiens, UniProt P06213)", "sequence (P06213 28-1382)": "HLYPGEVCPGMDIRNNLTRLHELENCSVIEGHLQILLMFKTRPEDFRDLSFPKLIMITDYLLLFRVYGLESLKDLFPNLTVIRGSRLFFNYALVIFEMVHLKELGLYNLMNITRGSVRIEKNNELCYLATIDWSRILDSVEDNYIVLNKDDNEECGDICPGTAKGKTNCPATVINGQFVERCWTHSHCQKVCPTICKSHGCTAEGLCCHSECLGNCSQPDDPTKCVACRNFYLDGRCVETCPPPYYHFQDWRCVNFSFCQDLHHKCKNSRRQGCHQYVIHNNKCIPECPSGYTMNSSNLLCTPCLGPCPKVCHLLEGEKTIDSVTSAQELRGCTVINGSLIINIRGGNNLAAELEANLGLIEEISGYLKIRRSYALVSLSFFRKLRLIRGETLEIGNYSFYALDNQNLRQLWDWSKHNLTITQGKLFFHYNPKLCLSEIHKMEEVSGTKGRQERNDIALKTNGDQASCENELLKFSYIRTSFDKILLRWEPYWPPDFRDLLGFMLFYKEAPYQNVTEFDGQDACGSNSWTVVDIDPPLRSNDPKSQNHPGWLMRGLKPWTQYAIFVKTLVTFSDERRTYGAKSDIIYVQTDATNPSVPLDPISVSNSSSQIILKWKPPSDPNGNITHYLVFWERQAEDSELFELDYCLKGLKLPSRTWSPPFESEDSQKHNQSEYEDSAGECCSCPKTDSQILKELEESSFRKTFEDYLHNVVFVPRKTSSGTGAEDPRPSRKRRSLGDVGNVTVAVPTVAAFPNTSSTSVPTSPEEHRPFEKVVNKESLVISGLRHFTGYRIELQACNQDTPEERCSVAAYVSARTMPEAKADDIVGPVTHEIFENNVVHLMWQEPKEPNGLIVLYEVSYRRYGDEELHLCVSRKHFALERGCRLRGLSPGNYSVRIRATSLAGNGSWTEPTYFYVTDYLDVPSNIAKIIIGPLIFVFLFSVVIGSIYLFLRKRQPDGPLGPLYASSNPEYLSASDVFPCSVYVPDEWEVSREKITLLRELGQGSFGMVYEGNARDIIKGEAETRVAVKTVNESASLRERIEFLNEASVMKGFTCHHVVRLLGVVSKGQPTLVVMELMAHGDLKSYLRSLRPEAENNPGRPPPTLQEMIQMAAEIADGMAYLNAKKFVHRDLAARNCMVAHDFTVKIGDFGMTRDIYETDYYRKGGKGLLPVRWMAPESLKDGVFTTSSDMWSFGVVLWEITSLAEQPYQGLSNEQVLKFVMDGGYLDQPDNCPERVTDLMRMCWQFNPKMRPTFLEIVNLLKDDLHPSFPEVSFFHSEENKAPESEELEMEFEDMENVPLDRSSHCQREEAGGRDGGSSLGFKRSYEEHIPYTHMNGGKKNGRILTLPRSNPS", "conditions": "INSR, ZLYTE, ATP Km app", "experimental": "as §1"}, "[3]": {"biological_target": "off-target kinases (Homo sapiens, UniProt P54646)", "sequence (P54646 whole entry)": "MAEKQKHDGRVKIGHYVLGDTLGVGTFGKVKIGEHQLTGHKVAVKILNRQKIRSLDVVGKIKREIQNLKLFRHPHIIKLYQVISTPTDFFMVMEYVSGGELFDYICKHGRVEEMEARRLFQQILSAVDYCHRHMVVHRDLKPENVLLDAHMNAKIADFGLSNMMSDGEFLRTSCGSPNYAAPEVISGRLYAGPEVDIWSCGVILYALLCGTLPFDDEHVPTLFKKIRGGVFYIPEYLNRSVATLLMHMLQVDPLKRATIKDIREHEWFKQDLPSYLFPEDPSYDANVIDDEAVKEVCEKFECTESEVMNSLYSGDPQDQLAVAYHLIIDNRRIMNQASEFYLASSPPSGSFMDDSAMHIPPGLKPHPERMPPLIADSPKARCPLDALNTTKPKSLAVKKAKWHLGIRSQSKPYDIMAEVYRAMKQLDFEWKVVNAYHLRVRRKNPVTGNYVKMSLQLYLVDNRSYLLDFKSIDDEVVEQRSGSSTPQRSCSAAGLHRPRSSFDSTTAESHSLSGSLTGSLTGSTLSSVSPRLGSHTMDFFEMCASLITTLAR", "experimental": "as §1"}, "[4]": {"biological_target": "off-target kinases (Homo sapiens, UniProt Q9HBH9)", "sequence (Q9HBH9 whole entry)": "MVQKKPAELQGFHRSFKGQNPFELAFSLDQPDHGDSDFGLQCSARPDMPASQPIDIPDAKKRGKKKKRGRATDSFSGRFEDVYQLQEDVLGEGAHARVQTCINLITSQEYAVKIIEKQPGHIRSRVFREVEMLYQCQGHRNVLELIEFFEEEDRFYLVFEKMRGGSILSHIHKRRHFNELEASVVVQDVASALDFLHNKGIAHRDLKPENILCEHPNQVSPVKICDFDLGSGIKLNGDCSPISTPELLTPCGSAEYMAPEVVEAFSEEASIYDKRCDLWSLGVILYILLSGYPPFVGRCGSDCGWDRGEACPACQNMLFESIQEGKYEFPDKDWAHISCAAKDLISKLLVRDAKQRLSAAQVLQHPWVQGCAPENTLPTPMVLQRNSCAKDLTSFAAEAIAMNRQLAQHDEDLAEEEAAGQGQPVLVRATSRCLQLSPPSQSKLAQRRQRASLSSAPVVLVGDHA", "conditions": "MKNK2 (MNK2), LanthaScreen Binding", "experimental": "as §1"}, "[5]": {"biological_target": "T1, off-target kinases (Homo sapiens, UniProt P29323)", "T1 sequence (P29323 19-1055)": "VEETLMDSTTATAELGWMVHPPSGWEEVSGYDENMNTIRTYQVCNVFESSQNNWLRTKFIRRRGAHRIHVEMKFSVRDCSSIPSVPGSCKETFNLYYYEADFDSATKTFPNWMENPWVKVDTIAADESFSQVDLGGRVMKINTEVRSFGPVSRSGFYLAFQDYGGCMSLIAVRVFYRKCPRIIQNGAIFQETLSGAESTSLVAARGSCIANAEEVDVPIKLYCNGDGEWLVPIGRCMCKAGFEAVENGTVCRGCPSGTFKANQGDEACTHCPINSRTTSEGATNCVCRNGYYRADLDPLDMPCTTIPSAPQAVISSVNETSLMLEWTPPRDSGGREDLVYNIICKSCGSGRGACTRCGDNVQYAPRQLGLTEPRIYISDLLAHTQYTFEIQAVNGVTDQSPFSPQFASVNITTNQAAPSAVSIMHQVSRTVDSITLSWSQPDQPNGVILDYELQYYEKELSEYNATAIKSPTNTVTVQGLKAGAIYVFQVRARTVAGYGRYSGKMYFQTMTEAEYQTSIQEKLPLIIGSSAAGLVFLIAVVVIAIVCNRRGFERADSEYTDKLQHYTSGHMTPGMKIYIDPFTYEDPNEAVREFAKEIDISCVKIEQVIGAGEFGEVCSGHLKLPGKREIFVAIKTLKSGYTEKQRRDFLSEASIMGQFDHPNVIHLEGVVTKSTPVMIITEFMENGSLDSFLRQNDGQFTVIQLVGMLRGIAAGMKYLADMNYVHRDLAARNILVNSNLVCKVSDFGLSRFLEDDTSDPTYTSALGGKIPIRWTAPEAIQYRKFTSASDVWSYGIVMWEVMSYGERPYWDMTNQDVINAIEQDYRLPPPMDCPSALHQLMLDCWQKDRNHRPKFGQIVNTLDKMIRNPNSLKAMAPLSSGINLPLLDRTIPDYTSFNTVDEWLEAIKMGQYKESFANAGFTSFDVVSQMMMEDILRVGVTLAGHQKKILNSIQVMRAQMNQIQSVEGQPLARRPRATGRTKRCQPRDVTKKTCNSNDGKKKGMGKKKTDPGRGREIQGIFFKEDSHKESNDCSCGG", "conditions": "EPHB2, ZLYTE, ATP Km app", "experimental": "as §1"}, "[6]": {"biological_target": "off-target kinases (Homo sapiens, UniProt Q5S007, G2019S)", "conditions": "ATP Km app, Adapta", "experimental": "as §1"}}, "note": "Like-named read-outs stand apart in the source and are kept apart here.", "data": [{"smiles": "N#Cc1cc(-c2ncnc(Nc3ccc(N4CCN(C5COC5)CC4)cc3)n2)ccc1OC1CCOCC1", "note": "[Compound 1, 5-(4-((4-(4-(oxetan-3-yl)piperazin-1-yl)phenyl)amino)-1,3,5-triazin-2-yl)-2-((tetrahydro-2H-pyran-4-yl)oxy)benzonitrile]", "values": [{"measurement": "inhibition", "setting": "[1]; read-out: % Inhibition 1", "value": 33, "unit": "%"}, {"measurement": "inhibition", "setting": "[1]; read-out: % Inhibition 2", "value": 38, "unit": "%"}, {"measurement": "inhibition", "setting": "[1]; read-out: % Inhibition Avg", "value": 35, "unit": "%"}, {"measurement": "inhibition", "setting": "[2]; read-out: % Inhibition 1", "value": -1, "unit": "%"}, {"measurement": "inhibition", "setting": "[2]; read-out: % Inhibition 2", "value": 1, "unit": "%"}, {"measurement": "inhibition", "setting": "[2]; read-out: % Inhibition Avg", "value": 0, "unit": "%"}, {"measurement": "inhibition", "setting": "[3]; AMPK (A2/B2/G1), LanthaScreen Binding, read-out: % Inhibition 1", "value": 35, "unit": "%"}, {"measurement": "inhibition", "setting": "[3]; AMPK (A2/B2/G1), LanthaScreen Binding, read-out: % Inhibition 2", "value": 35, "unit": "%"}, {"measurement": "inhibition", "setting": "[3]; AMPK (A2/B2/G1), LanthaScreen Binding, read-out: % Inhibition Avg", "value": 35, "unit": "%"}, {"measurement": "inhibition", "setting": "[3]; AMPK (A2/B2/G2), LanthaScreen Binding, read-out: % Inhibition 1", "value": 44, "unit": "%"}, {"measurement": "inhibition", "setting": "[3]; AMPK (A2/B2/G2), LanthaScreen Binding, read-out: % Inhibition 2", "value": 45, "unit": "%"}, {"measurement": "inhibition", "setting": "[3]; AMPK (A2/B2/G2), LanthaScreen Binding, read-out: % Inhibition Avg", "value": 45, "unit": "%"}, {"measurement": "inhibition", "setting": "[3]; AMPK A2/B1/G1, ATP Km app, ZLYTE, read-out: % Inhibition 1", "value": 47, "unit": "%"}, {"measurement": "inhibition", "setting": "[3]; AMPK A2/B1/G1, ATP Km app, ZLYTE, read-out: % Inhibition 2", "value": 46, "unit": "%"}, {"measurement": "inhibition", "setting": "[3]; AMPK A2/B1/G1, ATP Km app, ZLYTE, read-out: % Inhibition Avg", "value": 46, "unit": "%"}, {"measurement": "inhibition", "setting": "[4]; read-out: % Inhibition 1", "value": 86, "unit": "%"}, {"measurement": "inhibition", "setting": "[4]; read-out: % Inhibition 2", "value": 88, "unit": "%"}, {"measurement": "inhibition", "setting": "[4]; read-out: % Inhibition Avg", "value": 87, "unit": "%"}, {"measurement": "inhibition", "setting": "[5]; read-out: % Inhibition 1", "value": 14, "unit": "%"}, {"measurement": "inhibition", "setting": "[5]; read-out: % Inhibition 2", "value": 17, "unit": "%"}, {"measurement": "inhibition", "setting": "[5]; read-out: % Inhibition Avg", "value": 16, "unit": "%"}, {"measurement": "inhibition", "setting": "[6]; LRRK2 G2019S FL, read-out: % Inhibition 1", "value": 100, "unit": "%"}, {"measurement": "inhibition", "setting": "[6]; LRRK2 G2019S FL, read-out: % Inhibition 2", "value": 99, "unit": "%"}, {"measurement": "inhibition", "setting": "[6]; LRRK2 G2019S FL, read-out: % Inhibition Avg", "value": 99, "unit": "%"}, {"measurement": "inhibition", "setting": "[6]; LRRK2 G2019S, read-out: % Inhibition 1", "value": 99, "unit": "%"}, {"measurement": "inhibition", "setting": "[6]; LRRK2 G2019S, read-out: % Inhibition 2", "value": 100, "unit": "%"}, {"measurement": "inhibition", "setting": "[6]; LRRK2 G2019S, read-out: % Inhibition Avg", "value": 100, "unit": "%"}]}]}
